Laboratory results published in ChEMBL document CHEMBL1147421, “Diamine derivatives with antiparasitic activities” (Bioorg Med Chem Lett, 2004).
pEC50: −log10 of the molar value. Values joined by “and” are separate entries in the source; they are usually repeats but may differ in a detail not shown here. Identical values can stand only once.

How the values were obtained:
Plasmodium falciparum [1] = assay: Antiparasitic activity against chloroquine-resistant Plasmodium falciparum W2; assay type: functional, organism-based
Plasmodium falciparum [2] = assay: Antiparasitic activity against Plasmodium falciparum D6; assay type: functional, organism-based
[3] = Effective concentration expressed as antiparasitic activity against Leishmania promastigotes (Leishmania donovani); NA = Not active; assay type: functional
[4] = Antiparasitic activity against Leishmania promastigotes (Leishmania donovani); assay type: functional

Row | SMILES | EC50 (Plasmodium falciparum [1]) | EC50 (Plasmodium falciparum [2]) | EC50 [3] | pEC50 [4] | pEC50 (Plasmodium falciparum [1]; Plasmodium falciparum) | pEC50 (Plasmodium falciparum [2]; Plasmodium falciparum) | pEC50 (Plasmodium falciparum [2]) | pEC50 (Plasmodium falciparum [1])
1 | NCCCCN(Cc1ccccc1)Cc1ccncc1.O=C(O)C(F)(F)F | Not Active | Not Active | Not Active |  |  |  |  | 
2 | COc1ccc(CN(CCCCN)Cc2ccccc2)cc1OC.O=C(O)C(F)(F)F |  | Not Active |  | 5.08 | 5.44 |  |  | 
3 | CCCCN(CCCC)CCCN.O=C(O)C(F)(F)F | Not Active |  |  | 5.33 |  | 5.20 |  | 
4 | NCCCCN(Cc1ccc(OCCc2ccccc2)cc1)Cc1ccc(OCCc2ccccc2)cc1.O=C(O)C(F)(F)F | Not Active |  |  | 4.89 and 4.57 |  | 5.13 | 5.06 | 
5 | COc1ccc(CN(CCCCN)Cc2ccc(OC)cc2)cc1.O=C(O)C(F)(F)F |  | Not Active |  | 4.97 | 5.17 |  |  | 
6 | NCCCCN(Cc1ccc(O)cc1)Cc1ccc(O)cc1.O=C(O)C(F)(F)F | Not Active | Not Active | Not Active |  |  |  |  | 
7 | COc1ccc(CN(CCCN)Cc2ccc(OC)cc2OC)c(OC)c1.O=C(O)C(F)(F)F |  | Not Active |  | 4.69 | 5.03 |  |  | 
8 | CCCCOc1ccc(CN(CCCN)Cc2ccc(OCCCC)cc2)cc1 |  |  |  | 5.91 and 5.90 | 5.18 | 5.36 | 5.39 | 5.19
9 | Cc1ccc(COc2ccc(CN(CCCN)Cc3ccc(OCc4ccc(C)cc4)cc3)cc2)cc1 |  |  |  | 5.92 and 5.97 | 5.44 | 5.85 | 5.85 | 5.34
10 | COc1ccc(OC)c(CN(CCCCN)Cc2cc(OC)ccc2OC)c1.O=C(O)C(F)(F)F | Not Active | Not Active |  | 5.27 |  |  |  | 
11 | COc1ccc(CN(CCCN)Cc2ccccc2)cc1.O=C(O)C(F)(F)F | Not Active | Not Active |  | 5.34 |  |  |  | 
12 | NCCCN(Cc1ccc(OCc2c(F)c(F)c(F)c(F)c2F)cc1)Cc1ccc(OCc2c(F)c(F)c(F)c(F)c2F)cc1 |  |  |  | 5.42 and 5.71 | 5.50 | 5.65 | 5.57 | 5.48
13 | NCCCCN(Cc1ccc(Br)o1)Cc1ccc(Br)o1.O=C(O)C(F)(F)F | Not Active | Not Active |  | 4.72 |  |  |  | 
14 | NCCCCN(Cc1ccc(OCc2ccccc2)c(OCc2ccccc2)c1)Cc1ccc(OCc2ccccc2)c(OCc2ccccc2)c1 |  |  |  | 5.73 | 5.65 | 5.46 |  | 
15 | NCCCCN(Cc1ccc(OCc2c(F)c(F)c(F)c(F)c2F)cc1)Cc1ccc(OCc2c(F)c(F)c(F)c(F)c2F)cc1 |  |  |  | 5.60 and 5.53 | 5.67 | 6.17 |  | 5.68
16 | NCCCN(Cc1ccccc1)Cc1ccc(Cc2ccc(Br)o2)cc1.O=C(O)C(F)(F)F |  | Not Active |  | 4.69 | 5.24 |  |  | 
17 | NCCCN(Cc1ccc(OCc2ccc(Br)cc2)cc1)Cc1ccc(OCc2ccc(Br)cc2)cc1 |  |  |  | 6.04 and 6.06 | 5.61 | 5.94 | 5.91 | 5.65
18 | COc1ccc(CN(CCCN)Cc2ccc(OC)c(O)c2)cc1O.O=C(O)C(F)(F)F | Not Active | Not Active | Not Active |  |  |  |  | 
19 | COc1ccc(CN(CCCCN)Cc2ccc(OC)c(O)c2)cc1O.O=C(O)C(F)(F)F | Not Active | Not Active | Not Active |  |  |  |  | 
20 | NCCCN(Cc1ccc(Br)o1)Cc1ccc(Br)o1.O=C(O)C(F)(F)F | Not Active | Not Active |  | 4.70 |  |  |  | 

Row | SMILES | EC50 (Plasmodium falciparum [1]) | EC50 (Plasmodium falciparum [2]) | EC50 [3] | pEC50 [4] | pEC50 (Plasmodium falciparum [1]; Plasmodium falciparum) | pEC50 (Plasmodium falciparum [2]; Plasmodium falciparum) | pEC50 (Plasmodium falciparum [2]) | pEC50 (Plasmodium falciparum [1])
21 | CC(C)c1ccc(CN(CCCN)Cc2ccc(C(C)C)cc2)cc1.O=C(O)C(F)(F)F |  | Not Active |  | 5.58 | 5.02 |  |  | 
22 | COc1ccc(CN(CCCCN)Cc2ccccc2)cc1.O=C(O)C(F)(F)F |  | Not Active |  | 5.84 | 5.65 |  |  | 
23 | NCCCCN(Cc1ccccc1)Cc1ccccc1.O=C(O)C(F)(F)F | Not Active | Not Active |  | 4.58 |  |  |  | 
24 | CC(C)c1ccc(CN(CCCCN)Cc2ccc(C(C)C)cc2)cc1.O=C(O)C(F)(F)F |  | Not Active |  | 5.52 | 5.14 |  |  | 
25 | NCCCN(Cc1ccc(OCCCc2ccccc2)cc1)Cc1ccc(OCCCc2ccccc2)cc1 |  |  |  | 6.03 and 6.00 | 5.27 | 5.73 | 5.70 | 5.46
26 | CC1=C2[C@H]3OC(=O)[C@@H](C)[C@@H]3[C@@H](O)C[C@@]2(C)C=CC1=O |  |  |  |  | 7.70 | 7.70 |  | 
27 | NCCCN(Cc1ccc(O)cc1)Cc1ccc(O)cc1.O=C(O)C(F)(F)F | Not Active | Not Active | Not Active |  |  |  |  | 
28 | CC(C)(C)c1ccc(COc2ccc(CN(CCCN)Cc3ccc(OCc4ccc(C(C)(C)C)cc4)cc3)cc2)cc1 |  |  |  | 5.67 and 5.86 | 5.41 | 5.60 | 5.69 | 5.39
29 | COc1cccc(CN(CCCN)Cc2cccc(OC)c2)c1.O=C(O)C(F)(F)F | Not Active | Not Active |  | 4.90 |  |  |  | 
30 | COc1ccc(CN(CCCN)Cc2ccccc2)cc1OC.O=C(O)C(F)(F)F |  | Not Active |  | 5.40 | 5.25 |  |  | 
31 | CCCCOc1ccc(CN(CCCCN)Cc2ccc(OCCCC)cc2)cc1 |  |  |  | 5.61 and 5.41 | 5.38 | 5.39 |  | 5.54
32 | COc1cc(CN(CCCN)Cc2cc(OC)cc(OC)c2)cc(OC)c1.O=C(O)C(F)(F)F | Not Active | Not Active |  | 5.03 |  |  |  | 
33 | COc1cccc(CN(CCCCN)Cc2cccc(OC)c2)c1.O=C(O)C(F)(F)F |  | Not Active |  | 4.96 | 5.21 |  |  | 
34 | NCCCCN(Cc1ccccc1)Cc1ccc(OCc2ccccc2)cc1 |  |  |  | 6.43 | 5.11 | 5.24 |  | 
35 | NCCCN(Cc1ccccc1)Cc1ccc(OCc2ccccc2)cc1 |  |  |  | 5.86 | 5.42 | 5.35 |  | 
36 | NCCCCN(Cc1ccc(OCc2ccccc2)cc1)Cc1ccc(OCc2ccccc2)cc1 |  |  |  | 5.73 | 5.31 | 5.49 |  | 
37 | NCCCCN(Cc1ccccc1)Cc1ccc(Cl)cc1.O=C(O)C(F)(F)F | Not Active | Not Active |  | 5.79 |  |  |  | 
38 | CC(C)c1ccc(CN(CCCN)Cc2ccccc2)cc1 |  |  |  | 5.80 | 5.66 | 5.14 |  | 
39 | CC(C)c1ccc(CN(CCCCN)Cc2ccccc2)cc1 |  |  |  | 5.73 | 4.99 | 5.02 |  | 
40 | NCCCCN(Cc1ccccc1)Cc1ccc(C(=O)O)cc1.O=C(O)C(F)(F)F | Not Active | Not Active |  | 4.99 |  |  |  | 

Row | SMILES | EC50 (Plasmodium falciparum [1]) | EC50 (Plasmodium falciparum [2]) | EC50 [3] | pEC50 [4] | pEC50 (Plasmodium falciparum [1]; Plasmodium falciparum) | pEC50 (Plasmodium falciparum [2]; Plasmodium falciparum) | pEC50 (Plasmodium falciparum [2]) | pEC50 (Plasmodium falciparum [1])
41 | NCCCCN(Cc1ccc(OCc2ccc(Cl)c(Cl)c2)cc1)Cc1ccc(OCc2ccc(Cl)c(Cl)c2)cc1 |  |  |  | 5.42 and 5.44 |  | 5.94 |  | 5.59 and 6.16
42 | NCCCN(Cc1ccc(OCc2ccccc2)c(OCc2ccccc2)c1)Cc1ccc(OCc2ccccc2)c(OCc2ccccc2)c1 |  |  |  | 5.79 | 5.52 | 5.54 |  | 
43 | NCCCN(Cc1ccc(Cl)cc1)Cc1ccc(Cl)cc1.O=C(O)C(F)(F)F |  | Not Active |  | 5.06 | 5.00 |  |  | 
44 | NCCCCN(Cc1ccccc1)Cc1ccc(Br)o1.O=C(O)C(F)(F)F | Not Active | Not Active |  | 4.68 |  |  |  | 
45 | NCCCN(Cc1ccccc1)Cc1ccc(C(=O)O)cc1.O=C(O)C(F)(F)F | Not Active | Not Active |  | 5.05 |  |  |  | 
46 | COc1ccc(CN(CCCN)Cc2ccc(OC)cc2)cc1.O=C(O)C(F)(F)F |  | Not Active |  | 5.00 | 5.03 |  |  | 
47 | NCCCN(Cc1ccc(OCCc2ccccc2)cc1)Cc1ccc(OCCc2ccccc2)cc1.O=C(O)C(F)(F)F | Not Active |  |  | 4.85 and 4.95 |  | 5.37 | 5.16 | 
48 | NCCCN(Cc1ccccc1)Cc1ccc(Cl)cc1.O=C(O)C(F)(F)F |  | Not Active |  | 5.73 | 5.11 |  |  | 
49 | NCCCCN(Cc1ccc(OCCCc2ccccc2)cc1)Cc1ccc(OCCCc2ccccc2)cc1 |  |  |  | 5.61 and 5.53 | 5.51 | 5.95 | 5.98 | 5.60
50 | NCCCN(Cc1ccc(OCc2ccccc2)cc1)Cc1ccc(OCc2ccccc2)cc1 |  |  |  | 5.95 | 5.22 | 5.30 |  | 
51 | NCCCN(Cc1ccc(OCc2ccc(Cl)c(Cl)c2)cc1)Cc1ccc(OCc2ccc(Cl)c(Cl)c2)cc1 |  |  |  | 6.01 and 5.59 | 5.49 | 5.87 | 5.81 | 5.39
52 | CC(C)(C)c1ccc(COc2ccc(CN(CCCCN)Cc3ccc(OCc4ccc(C(C)(C)C)cc4)cc3)cc2)cc1 |  |  |  | 5.05 and 5.52 |  | 5.97 |  | 5.19 and 5.68
53 | NCCCN(Cc1ccc(-c2ccc(Br)cc2)o1)Cc1ccc(-c2ccc(Br)cc2)o1.O=C(O)C(F)(F)F | Not Active |  |  | 5.07 |  | 5.25 |  | 
54 | NCCCCN(Cc1ccc(Cl)cc1)Cc1ccc(Cl)cc1.O=C(O)C(F)(F)F | Not Active | Not Active |  | 5.42 |  |  |  | 
55 | NCCCN(Cc1ccccc1)Cc1ccccc1.O=C(O)C(F)(F)F | Not Active | Not Active |  | 4.62 |  |  |  | 
56 | COc1cc(CN(CCCN)Cc2ccc(OCc3ccccc3)c(OC)c2)ccc1OCc1ccccc1 |  |  |  | 6.17 | 5.55 | 5.53 |  | 
57 | COc1cc(CN(CCCCN)Cc2ccc(OCc3ccccc3)c(OC)c2)ccc1OCc1ccccc1 |  |  |  | 5.74 | 5.77 | 5.97 |  | 
58 | C[C@@H]1[C@H](O)[C@@H](C)/C=C/C=C/CC/C=C/C=C/C=C/C=C/[C@H](O[C@@H]2O[C@H](C)[C@@H](O)[C@H](N)[C@@H]2O)C[C@@H]2O[C@](O)(C[C@@H](O)C[C@@H](O)[C@H](O)CC[C@@H](O)C[C@@H](O)CC(=O)O[C@H]1C)C[C@H](O)[C@H]2C(=O)O |  |  |  | 8.00 |  |  |  | 
59 | CCN(CC)CCCC(C)Nc1ccnc2cc(Cl)ccc12 (centres undefined) [CHLOROQUINE] |  |  |  |  | 6.51 | 7.85 |  | 
60 | N=C(N)c1ccc(OCCCCCOc2ccc(C(=N)N)cc2)cc1 [PENTAMIDINE] |  |  |  | 5.87 |  |  |  | 
